The values that follow come from ChEMBL document CHEMBL1201862, “PubChem BioAssay data set” (2004).

For one assay, the target named is T1, X-box-binding protein 1 (Homo sapiens, UniProt P17861).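 Note: confirmatory dose-response counter-screen serving a CHOP assay.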
T1 sequence (P17861 whole entry): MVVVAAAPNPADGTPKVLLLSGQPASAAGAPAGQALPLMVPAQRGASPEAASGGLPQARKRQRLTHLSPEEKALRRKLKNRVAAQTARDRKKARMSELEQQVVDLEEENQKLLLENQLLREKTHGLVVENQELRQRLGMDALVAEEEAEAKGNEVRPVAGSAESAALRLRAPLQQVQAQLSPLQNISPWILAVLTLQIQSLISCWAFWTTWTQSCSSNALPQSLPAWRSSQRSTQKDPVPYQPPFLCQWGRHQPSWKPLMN
The class given is functional, Cricetulus griseus.

In assay [1] the target is DNA damage-inducible transcript 3 protein (Mus musculus, UniProt P35639). The class given is functional, Cricetulus griseus.
The test system of another assay is J774.A1. Description: Confirmation of image-based Screening Assay for Inhibitors of Phagocytosis. [Related pubchem assays (depositor defined):AID1029, AID1643]. The class given is functional, cell-based. The note with it: Mus musculus.
For assay [2], the system named is BJ. Description: BJ-TERT fibroblast viability loss – cell-based, RAS-independent, luminescence, dose response (AID 1933). The note with it: Homo sapiens. Type of assay: functional.
In assay [3] the test system is BJ. Description: cells. Type of assay: functional, cell-based. The note with it: Homo sapiens.
The nature of assay [4]: DRD fibroblast viability loss – cell-based, non-viral oncogenic, luminescence, dose response (AID 1934). The class given is functional. The note with it: Homo sapiens.
The test system of assay [5] is BJ. Description: BJ-TERT-LT-ST fibroblast viability loss – cell-based, RAS-independent, luminescence, dose response (AID 1935).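 Note: BJ fibroblasts immortalized with TERT plus LT and ST oncogenes.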 Type of assay: functional. Particulars: Homo sapiens.
A short description of a further assay: cells. Type of assay: functional.
The nature of assay [6]: alpha-synuclein stem-loop luciferase translation blockers – H4 neuroglioma cells, luminescence, confirmation (AID 1988). The class given is functional, cell-based.
The nature of assay [7]: Vero E6 cell cytotoxicity, dose response, cytotoxicity control for non-replicating M. tuberculosis project, secondary assay (AID 492998). The class given is functional, VeroE6. The note with it: Vero C1008.
The target in another assay is Beta Lactamase (Pseudomonas aeruginosa, UniProt Q932Y6). Description: BLA reporter interference, concentration series – BLA reporter cells, FRET fluorescence, artefact control for TLR9-MyD88 binding inhibitor project, dose response (AID 588341).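 Note: cell based assay in CHO-K1 cells stably expressing beta-lactamase.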 The class given is cell-based.
Assay [8] deals with T2, Heat shock factor protein 1 (Mus musculus, UniProt P38532).
T2 sequence (P38532 whole entry): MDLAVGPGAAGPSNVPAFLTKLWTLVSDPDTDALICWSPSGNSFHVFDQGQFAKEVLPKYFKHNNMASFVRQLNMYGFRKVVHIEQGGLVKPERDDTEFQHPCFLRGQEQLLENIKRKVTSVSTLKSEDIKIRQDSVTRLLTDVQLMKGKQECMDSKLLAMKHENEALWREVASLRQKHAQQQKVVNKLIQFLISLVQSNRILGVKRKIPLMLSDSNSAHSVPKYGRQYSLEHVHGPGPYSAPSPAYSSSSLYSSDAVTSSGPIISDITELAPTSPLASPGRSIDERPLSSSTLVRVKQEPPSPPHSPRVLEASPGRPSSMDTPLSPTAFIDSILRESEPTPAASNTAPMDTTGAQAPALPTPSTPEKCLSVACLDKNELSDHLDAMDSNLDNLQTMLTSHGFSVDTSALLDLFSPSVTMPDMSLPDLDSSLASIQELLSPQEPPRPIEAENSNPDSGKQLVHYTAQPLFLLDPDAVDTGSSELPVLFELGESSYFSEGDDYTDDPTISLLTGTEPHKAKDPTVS
Description: enhancement of HSF1-driven luciferase signal – cell-based, NIH3T3, luminescence, dose retest, confirmation (AID 435004).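 Note: stress induced by proteasome inhibitor MG132 added 30 min after compound; luciferase reporter driven by HSF1 response element in NIH3T3 cells; actives raise luminescence as potentiators of the MG132 stress response.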 Type of assay: functional.

Assay [9] can be described thus: Luminescence Cell-Based Dose Response HTS to Identify Inhibitors of 5'UTR Stem-Loop Driven Prion Protein mRNA Translation in H4 Neuroglioblastoma Cells. [Related pubchem assays: 1827 (Project Summary), 1813 (Primary HTS)]. Type of assay: functional.
For another assay, the system named is CHO. Description: CHO cell viability loss, potency – luminescence, cytotoxicity control for TLR9-MyD88 binding inhibitor project, dose response (AID 588339).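 Note: CHO cells stably coexpressing TLR9 and MyD88 fusions from primary screen; compound exposure lasted 48 hours before viability readout.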 The class given is functional, cell-based, hamster. The note with it: Cricetulus griseus.
Assay [10] concerns the target T3, Kappa-type opioid receptor (Homo sapiens, UniProt P41145). Type of assay: functional.
Assay [11] can be described thus: THP-1 cell cytotoxicity, dose response, cytotoxicity control for non-replicating M. tuberculosis project (AID 489025). The class given is functional.
The target in a further assay is Beta-galactosidase (Escherichia coli, UniProt Q8VNN2). Type of assay: functional.
Assay [12] can be described thus: HepG2 cell cytotoxicity, dose response, cytotoxicity control for non-replicating M. tuberculosis project (AID 489018). The class given is functional. The note with it: Mycobacterium tuberculosis.
Assay [13] addresses T3, Kappa-type opioid receptor. The class given is functional. The source holds these as a separate data set.
A short description of assay [14]: luciferase reporter signal suppression in cells – H4 neuroglioma cells, luminescence, dose response (AID 1990). The class given is functional, cell-based.
The next assay deals with Mucolipin-3 (Homo sapiens, UniProt Q8TDD5). Description: Fluorescence counterscreen assay for […] agonists: dose response cell-based high-throughput screening assay to identify agonists of the transient receptor potential channel ML3 (TRPML3). [Related pubchem assays: 1424, 1448 ]. Type of assay: functional. In general terms: The purpose of a counterscreen is to sort out artefacts and off-target activity.

For another assay, the target named is Ion channel NompC (Danio rerio, UniProt Q7T1G6). Description: Dose response cell-based high-throughput screening assay for agonists of the transient receptor potential channel N1 (TRPN1). [Related pubchem assays (depositor defined):AID1424, AID1448]. Type of assay: functional.

SMILES strings stand for the structures. Active and inactive are the calls of the source.

The term IC50 denotes the concentration at which inhibition is half-maximal. Usually EC50 stands for the concentration that produces a half-maximal response. As a reminder, the CC50 is the concentration at which the toxic effect on the cells reaches its halfway point.

T3 sequence (P41145 whole entry): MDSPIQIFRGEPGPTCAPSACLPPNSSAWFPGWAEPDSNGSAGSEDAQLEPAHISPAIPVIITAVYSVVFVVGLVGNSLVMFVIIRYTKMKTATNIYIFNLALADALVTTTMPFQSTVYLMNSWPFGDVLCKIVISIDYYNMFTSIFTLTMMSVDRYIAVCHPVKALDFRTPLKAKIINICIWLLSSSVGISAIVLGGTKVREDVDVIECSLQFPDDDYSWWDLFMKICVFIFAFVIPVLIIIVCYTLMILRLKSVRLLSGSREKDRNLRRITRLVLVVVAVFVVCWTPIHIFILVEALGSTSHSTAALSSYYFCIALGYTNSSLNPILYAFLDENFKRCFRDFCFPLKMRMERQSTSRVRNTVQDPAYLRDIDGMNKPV
Mucolipin-3, sequence (Q8TDD5 whole entry): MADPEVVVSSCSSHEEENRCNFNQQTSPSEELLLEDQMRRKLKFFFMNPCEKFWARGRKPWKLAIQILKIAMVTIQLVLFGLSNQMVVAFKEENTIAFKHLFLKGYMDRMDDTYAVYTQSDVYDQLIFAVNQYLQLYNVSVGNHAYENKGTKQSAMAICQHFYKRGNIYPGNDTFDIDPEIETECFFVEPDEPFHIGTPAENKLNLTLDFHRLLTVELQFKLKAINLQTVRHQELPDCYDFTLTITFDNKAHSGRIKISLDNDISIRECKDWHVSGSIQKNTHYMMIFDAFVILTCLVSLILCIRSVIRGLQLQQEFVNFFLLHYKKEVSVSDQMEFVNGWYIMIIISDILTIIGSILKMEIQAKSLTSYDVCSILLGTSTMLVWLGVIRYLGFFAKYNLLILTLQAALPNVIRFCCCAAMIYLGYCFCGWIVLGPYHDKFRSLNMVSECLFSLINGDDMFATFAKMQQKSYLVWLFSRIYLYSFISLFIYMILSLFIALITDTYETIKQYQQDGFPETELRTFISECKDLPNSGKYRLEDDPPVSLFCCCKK
Beta Lactamase, sequence (Q932Y6 whole entry): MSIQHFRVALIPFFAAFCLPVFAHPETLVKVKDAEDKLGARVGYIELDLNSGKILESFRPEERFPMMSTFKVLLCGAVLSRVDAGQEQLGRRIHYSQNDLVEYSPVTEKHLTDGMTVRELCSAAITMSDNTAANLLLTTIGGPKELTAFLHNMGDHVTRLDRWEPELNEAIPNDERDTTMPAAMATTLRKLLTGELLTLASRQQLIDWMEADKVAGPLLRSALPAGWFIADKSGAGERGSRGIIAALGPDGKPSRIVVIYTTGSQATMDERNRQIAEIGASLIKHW
Beta-galactosidase, sequence (Q8VNN2 whole entry): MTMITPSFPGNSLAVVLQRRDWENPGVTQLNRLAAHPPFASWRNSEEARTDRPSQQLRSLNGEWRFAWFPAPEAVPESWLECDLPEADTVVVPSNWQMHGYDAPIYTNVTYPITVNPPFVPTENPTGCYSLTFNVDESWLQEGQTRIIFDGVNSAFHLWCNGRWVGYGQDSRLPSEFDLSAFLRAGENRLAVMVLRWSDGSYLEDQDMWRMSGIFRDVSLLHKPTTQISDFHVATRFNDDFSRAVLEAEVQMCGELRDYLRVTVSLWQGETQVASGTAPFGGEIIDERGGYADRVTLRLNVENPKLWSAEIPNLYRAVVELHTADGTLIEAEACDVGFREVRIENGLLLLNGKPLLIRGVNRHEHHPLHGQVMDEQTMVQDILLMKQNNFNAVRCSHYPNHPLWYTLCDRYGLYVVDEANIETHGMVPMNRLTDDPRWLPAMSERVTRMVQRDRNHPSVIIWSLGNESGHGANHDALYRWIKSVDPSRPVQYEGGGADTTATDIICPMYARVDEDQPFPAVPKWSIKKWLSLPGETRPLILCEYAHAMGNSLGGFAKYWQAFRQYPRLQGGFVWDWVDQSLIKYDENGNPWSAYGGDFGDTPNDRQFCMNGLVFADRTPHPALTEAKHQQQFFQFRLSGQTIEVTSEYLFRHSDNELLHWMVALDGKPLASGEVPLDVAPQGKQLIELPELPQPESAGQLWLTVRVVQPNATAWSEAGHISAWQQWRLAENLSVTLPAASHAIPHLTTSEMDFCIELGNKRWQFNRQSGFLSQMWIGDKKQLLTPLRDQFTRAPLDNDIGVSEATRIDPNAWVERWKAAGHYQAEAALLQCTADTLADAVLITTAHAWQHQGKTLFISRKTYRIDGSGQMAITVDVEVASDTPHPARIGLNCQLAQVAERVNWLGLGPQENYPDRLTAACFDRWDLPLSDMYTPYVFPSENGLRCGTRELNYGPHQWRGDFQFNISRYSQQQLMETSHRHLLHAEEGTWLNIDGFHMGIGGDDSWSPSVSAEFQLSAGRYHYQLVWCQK
Ion channel NompC, sequence (Q7T1G6 whole entry): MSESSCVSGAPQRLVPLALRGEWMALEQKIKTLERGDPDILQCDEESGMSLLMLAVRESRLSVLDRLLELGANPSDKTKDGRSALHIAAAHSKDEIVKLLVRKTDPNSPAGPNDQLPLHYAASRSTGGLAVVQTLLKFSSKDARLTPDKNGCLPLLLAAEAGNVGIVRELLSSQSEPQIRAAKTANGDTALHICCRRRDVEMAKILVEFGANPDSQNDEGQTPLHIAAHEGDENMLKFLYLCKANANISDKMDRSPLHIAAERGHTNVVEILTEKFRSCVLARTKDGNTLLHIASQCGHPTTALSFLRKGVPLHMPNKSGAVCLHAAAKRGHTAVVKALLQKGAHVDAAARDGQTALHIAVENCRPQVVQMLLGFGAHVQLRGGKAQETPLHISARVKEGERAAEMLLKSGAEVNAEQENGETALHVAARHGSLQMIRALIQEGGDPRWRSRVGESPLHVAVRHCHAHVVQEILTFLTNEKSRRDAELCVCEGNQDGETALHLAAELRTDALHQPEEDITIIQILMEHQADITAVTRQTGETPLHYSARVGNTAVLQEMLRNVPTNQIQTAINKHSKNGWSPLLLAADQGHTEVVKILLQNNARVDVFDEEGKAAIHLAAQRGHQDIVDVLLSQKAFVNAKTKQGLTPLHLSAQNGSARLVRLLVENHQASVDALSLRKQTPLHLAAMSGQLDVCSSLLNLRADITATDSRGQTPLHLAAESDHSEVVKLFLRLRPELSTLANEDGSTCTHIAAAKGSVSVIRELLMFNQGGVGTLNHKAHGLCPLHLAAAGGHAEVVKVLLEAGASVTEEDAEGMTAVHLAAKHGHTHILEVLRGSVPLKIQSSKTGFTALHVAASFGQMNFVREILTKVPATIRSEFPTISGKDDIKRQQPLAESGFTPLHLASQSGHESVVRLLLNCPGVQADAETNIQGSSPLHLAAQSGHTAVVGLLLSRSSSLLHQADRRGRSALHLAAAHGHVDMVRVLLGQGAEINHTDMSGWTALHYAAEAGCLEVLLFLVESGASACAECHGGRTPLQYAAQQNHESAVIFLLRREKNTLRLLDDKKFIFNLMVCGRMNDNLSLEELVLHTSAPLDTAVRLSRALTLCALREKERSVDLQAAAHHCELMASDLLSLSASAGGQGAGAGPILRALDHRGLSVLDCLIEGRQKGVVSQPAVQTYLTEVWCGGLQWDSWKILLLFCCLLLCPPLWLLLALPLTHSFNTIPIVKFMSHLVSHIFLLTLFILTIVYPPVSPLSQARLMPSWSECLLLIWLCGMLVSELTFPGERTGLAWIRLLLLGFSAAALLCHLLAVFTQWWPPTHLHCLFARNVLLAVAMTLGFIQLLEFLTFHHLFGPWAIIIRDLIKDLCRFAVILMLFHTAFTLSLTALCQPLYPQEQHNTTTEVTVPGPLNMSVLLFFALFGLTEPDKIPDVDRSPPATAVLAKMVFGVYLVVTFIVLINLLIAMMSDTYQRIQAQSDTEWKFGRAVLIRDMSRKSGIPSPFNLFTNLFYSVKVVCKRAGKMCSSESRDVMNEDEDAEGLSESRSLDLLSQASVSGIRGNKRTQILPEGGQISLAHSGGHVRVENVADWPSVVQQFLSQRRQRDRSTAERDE
DNA damage-inducible transcript 3 protein, sequence (P35639 whole entry): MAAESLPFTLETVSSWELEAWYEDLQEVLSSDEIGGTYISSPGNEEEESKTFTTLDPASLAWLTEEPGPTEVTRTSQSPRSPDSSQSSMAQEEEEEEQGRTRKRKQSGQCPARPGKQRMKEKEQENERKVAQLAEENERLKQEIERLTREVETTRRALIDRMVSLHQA

Turning to `CCOC(=O)c1c(-c2ccccc2)oc2ccc(O)c(CN3CCOCC3)c12`, the “Absolute IC50 (XBP1)” value on X-box-binding protein 1 is below 10 µM. In addition, in assay [1], the “Absolute IC50 (CHOP)” value was 10 µM.

Turning to `CCN1CCN(c2ncc3c(n2)CC(c2cc(OC)c(OC)c(OC)c2)CC3=O)CC1` (configuration not stated), the half-inhibitory concentration (IC50) with J774.A1 is 0.419 µM (active). The concentration for a half-maximal effect (EC50) with BJ [2] was 5.01 µM (active); with BJ [3], 124 µM (active); in assay [4], 2.34 µM (active); in the assay with BJ [5] it was 21.8 µM (active).

Take `CS(=O)(=O)c1sc(C#N)c2c1C(=O)CC(c1ccccc1)C2` (configuration not stated): the IC50 was 0.78 µM (active) in “cells”; 7.08 µM (active) on Beta Lactamase; 2.74 µM (active) in the assay on CHO; 3.24 µM in assay [10]; 4.62 µM (active) in assay [13]. Also, the concentration for a half-maximal effect (EC50) in assay [6] is 7.83 µM (active); in assay [8] it was 17.8 µM (active); in assay [9] it was 10.3 µM (active); on Beta-galactosidase, > 31.5 µM (inactive); in [14], > 120 µM (not active). Also, the values for the CC50 in assay [7], in assay [11] and in assay [12] were 5.26 µM (active), 4.22 µM (active) and 4.85 µM (active), respectively.

On to `COC(=O)c1ccc(NC(=O)Nc2cccc(F)c2)cc1`, for which the EC50 was > 29.9 µM (not active) on Mucolipin-3 and > 29.9 µM (inactive) at Ion channel NompC.
